# Measured values as given in patent US20130209543A1, “ENHANCED TREATMENT REGIMENS USING MTOR INHIBITORS” (Intellikine LLC, priority 2011, published 2013).
# Tests used:
# [1] = system: TORC1 (p4EBP1 and pS6) and TORC2 (pPRAS40); assay: Human skin immunohistochemistry assay (skin biopsies, pathway inhibition); format: in vivo; settings: 6 mg QD, read-out: PD (% inhibition, H score) Skin: 4EBP1/PRAS40
# Experimental: Human Skin Immunohistochemistry Assay.
# Skin tissue was fixed in 10% neutral-buffered formalin solution for 24 hours and then processed and embedded in paraffin block. Sections (4 μm) were cut and mounted onto microscopic slides. Sections were incubated with primary antibodies (p4EBP1, pS6, or pRAS40) overnight and developed using a chromogenic substrate.
# (§1) Pharmacodynamic (PD) endpoints were evaluated in surrogate (peripheral blood cells [PBCs], skin) and tumor tissues for the phosphorylation of TORC1-dependent markers (4EBP1/S6), and TORC2-dependent markers (AKT/PRAS40). 50 patients were treated in 3 intermittent dosing regimens; 21 in 6 cohorts ranging 7-40 mg QW, 20 in 5 cohorts ranging 6-20 mg QD×3d QW, and 9 in 3 cohorts ranging 7-13 mg QD×5d QW. […] The MTD for intermittent dosing was not reached. All adverse events (AEs) reported were reversible. The most common (≧20%, n=35) AEs considered possibly related to compound A reported in all 3 dosing regimens included nausea (51%), hyperglycemia (37%), mucosal inflammation (29%), rash (23%), asthenia (23%), vomiting (26%), and diarrhea (20%). The majority of AEs considered possibly related to compound A in any regimen were Grade 1 or 2. The only reported Grade≧3 AE (≧5%) possibly related to compound A in 3 regimens was lymphopenia (6%). Tables 4-9 show summaries of observed adverse events for various treatment regimens of the invention.
# [2] = Phase I clinical trial: grade 3 or greater treatment-emergent adverse events (Table 9); format: in vivo
# Experimental: Adult patients with histologically confirmed advanced solid tumors were enrolled in a 3+3 dose escalation Phase I study evaluating 3 intermittent schedules of administration for compound A: QW (once weekly), QD×3d QW (3 days on 4 days off), and QD×5d QW (5 days on 2 days off), in comparison with daily dosing (QD). Safety, maximum tolerated dose (MTD), pharmacokinetics (PK) and preliminary antitumor activity were evaluated.
# as §1
smiles,measurement,setting,value
CC(C)n1nc(-c2ccc3oc(N)nc3c2)c2c(N)ncnc21 [compound A],inhibition at 6 mg,[1],60%
same,Grade≧3 AE (≧5%) possibly related: lymphopenia,[2]; 3 regimens,6%
same,"Abdominal pain upper, Grade 3 or greater TEAE","[2]; Total QD Dosing, N = 25",1 (4%)
same,"Anaemia, grade 3 or greater TEAE","[2]; Total QD Dosing, N = 25",1 (4%)
same,"Aspartate aminotransferase increased, Grade 3 or greater TEAE","[2]; Total QD Dosing, N = 25",0 (0%)
same,"Asthenia, grade 3 or greater TEAE","[2]; Total QD Dosing, N = 25",0 (0%)
same,"Catheter related infection, Grade 3 or greater TEAE","[2]; Total QD Dosing, N = 25",1 (4%)
same,"Cellulitis, Grade 3 or greater TEAE","[2]; Total QD Dosing, N = 25",1 (4%)
same,"Diarrhoea, grade 3 or greater TEAE","[2]; Total QD Dosing, N = 25",1 (4%)
same,"Disease progression, grade 3 or greater TEAE","[2]; Total QD Dosing, N = 25",0 (0%)
same,"Enterocutaneous fistula, Grade 3 or greater TEAE","[2]; Total QD Dosing, N = 25",1 (4%)
same,"Gamma-glutamyltransferase increased, Grade 3 or greater TEAE","[2]; Total QD Dosing, N = 25",0 (0%)
same,"Gastroenteritis, Grade 3 or greater TEAE","[2]; Total QD Dosing, N = 25",0 (0%)
same,"Hyperglycaemia, grade 3 or greater TEAE","[2]; Total QD Dosing, N = 25",4 (16%)
same,"Hypokalaemia, grade 3 or greater TEAE","[2]; Total QD Dosing, N = 25",2 (8%)
same,"Hyponatraemia, grade 3 or greater TEAE","[2]; Total QD Dosing, N = 25",2 (8%)
same,"Lymphopenia, grade 3 or greater TEAE","[2]; Total QD Dosing, N = 25",2 (8%)
same,"Pancreatitis acute, Grade 3 or greater TEAE","[2]; Total QD Dosing, N = 25",1 (4%)
same,"Pleural effusion, Grade 3 or greater TEAE","[2]; Total QD Dosing, N = 25",1 (4%)
same,"Pruritus, grade 3 or greater TEAE","[2]; Total QD Dosing, N = 25",2 (8%)
same,"Rash macular, Grade 3 or greater TEAE","[2]; Total QD Dosing, N = 25",0 (0%)
same,"Rash, grade 3 or greater TEAE","[2]; Total QD Dosing, N = 25",7 (28%)
same,"Somnolence, Grade 3 or greater TEAE","[2]; Total QD Dosing, N = 25",1 (4%)
same,"Thrombocytopenia, grade 3 or greater TEAE","[2]; Total QD Dosing, N = 25",2 (8%)
same,"Urinary tract infection, Grade 3 or greater TEAE","[2]; Total QD Dosing, N = 25",0 (0%)
same,"Abdominal pain upper, Grade 3 or greater TEAE","[2]; Total QDx3d QW, N = 14",0 (0%)
same,"Anaemia, grade 3 or greater TEAE","[2]; Total QDx3d QW, N = 14",0 (0%)
same,"Aspartate aminotransferase increased, Grade 3 or greater TEAE","[2]; Total QDx3d QW, N = 14",0 (0%)
same,"Asthenia, grade 3 or greater TEAE","[2]; Total QDx3d QW, N = 14",1 (7%)
same,"Catheter related infection, Grade 3 or greater TEAE","[2]; Total QDx3d QW, N = 14",0 (0%)
same,"Cellulitis, Grade 3 or greater TEAE","[2]; Total QDx3d QW, N = 14",0 (0%)
same,"Diarrhoea, grade 3 or greater TEAE","[2]; Total QDx3d QW, N = 14",1 (7%)
same,"Disease progression, grade 3 or greater TEAE","[2]; Total QDx3d QW, N = 14",1 (7%)
same,"Enterocutaneous fistula, Grade 3 or greater TEAE","[2]; Total QDx3d QW, N = 14",0 (0%)
same,"Gamma-glutamyltransferase increased, Grade 3 or greater TEAE","[2]; Total QDx3d QW, N = 14",1 (7%)
same,"Gastroenteritis, Grade 3 or greater TEAE","[2]; Total QDx3d QW, N = 14",1 (7%)
same,"Hyperglycaemia, grade 3 or greater TEAE","[2]; Total QDx3d QW, N = 14",1 (7%)
same,"Hypokalaemia, grade 3 or greater TEAE","[2]; Total QDx3d QW, N = 14",0 (0%)
same,"Hyponatraemia, grade 3 or greater TEAE","[2]; Total QDx3d QW, N = 14",0 (0%)
same,"Lymphopenia, grade 3 or greater TEAE","[2]; Total QDx3d QW, N = 14",1 (7%)
same,"Pancreatitis acute, Grade 3 or greater TEAE","[2]; Total QDx3d QW, N = 14",0 (0%)
same,Patients Reporting at Least One Grade 3 or Greater TEAE,"[2]; Total QDx3d QW, N = 14",7 (50%)
same,"Pleural effusion, Grade 3 or greater TEAE","[2]; Total QDx3d QW, N = 14",0 (0%)
same,"Pruritus, grade 3 or greater TEAE","[2]; Total QDx3d QW, N = 14",0 (0%)
same,"Rash macular, Grade 3 or greater TEAE","[2]; Total QDx3d QW, N = 14",1 (7%)
same,"Rash, grade 3 or greater TEAE","[2]; Total QDx3d QW, N = 14",0 (0%)
same,"Somnolence, Grade 3 or greater TEAE","[2]; Total QDx3d QW, N = 14",0 (0%)
same,"Thrombocytopenia, grade 3 or greater TEAE","[2]; Total QDx3d QW, N = 14",0 (0%)
same,"Urinary tract infection, Grade 3 or greater TEAE","[2]; Total QDx3d QW, N = 14",1 (7%)
same,"Abdominal pain upper, Grade 3 or greater TEAE","[2]; Total QDx5d QW, N = 6",0 (0%)
same,"Anaemia, grade 3 or greater TEAE","[2]; Total QDx5d QW, N = 6",0 (0%)
same,"Aspartate aminotransferase increased, Grade 3 or greater TEAE","[2]; Total QDx5d QW, N = 6",0 (0%)
same,"Asthenia, grade 3 or greater TEAE","[2]; Total QDx5d QW, N = 6",0 (0%)
same,"Catheter related infection, Grade 3 or greater TEAE","[2]; Total QDx5d QW, N = 6",0 (0%)
same,"Cellulitis, Grade 3 or greater TEAE","[2]; Total QDx5d QW, N = 6",0 (0%)
same,"Diarrhoea, grade 3 or greater TEAE","[2]; Total QDx5d QW, N = 6",0 (0%)
same,"Disease progression, grade 3 or greater TEAE","[2]; Total QDx5d QW, N = 6",0 (0%)
same,"Enterocutaneous fistula, Grade 3 or greater TEAE","[2]; Total QDx5d QW, N = 6",0 (0%)
same,"Gamma-glutamyltransferase increased, Grade 3 or greater TEAE","[2]; Total QDx5d QW, N = 6",0 (0%)
same,"Gastroenteritis, Grade 3 or greater TEAE","[2]; Total QDx5d QW, N = 6",0 (0%)
